Experimental data reported in ChEMBL document CHEMBL3414499, “Characterization of two distinct structural classes of selective aldehyde dehydrogenase 1A1 inhibitors” (J Med Chem, 2015).
Active and inactive are the calls of the source. The calls are words filed in the database; no cut-off is given here.

Experiments:
[1] = molecular target: T1, Delta-1-pyrroline-5-carboxylate dehydrogenase, mitochondrial (Homo sapiens) (UniProt P30038); assay: Effect on human ALDH4A1 at 20 uM preincubated for 2 mins with NAD+ followed by aldehyde substrate addition
T1 sequence (whole entry): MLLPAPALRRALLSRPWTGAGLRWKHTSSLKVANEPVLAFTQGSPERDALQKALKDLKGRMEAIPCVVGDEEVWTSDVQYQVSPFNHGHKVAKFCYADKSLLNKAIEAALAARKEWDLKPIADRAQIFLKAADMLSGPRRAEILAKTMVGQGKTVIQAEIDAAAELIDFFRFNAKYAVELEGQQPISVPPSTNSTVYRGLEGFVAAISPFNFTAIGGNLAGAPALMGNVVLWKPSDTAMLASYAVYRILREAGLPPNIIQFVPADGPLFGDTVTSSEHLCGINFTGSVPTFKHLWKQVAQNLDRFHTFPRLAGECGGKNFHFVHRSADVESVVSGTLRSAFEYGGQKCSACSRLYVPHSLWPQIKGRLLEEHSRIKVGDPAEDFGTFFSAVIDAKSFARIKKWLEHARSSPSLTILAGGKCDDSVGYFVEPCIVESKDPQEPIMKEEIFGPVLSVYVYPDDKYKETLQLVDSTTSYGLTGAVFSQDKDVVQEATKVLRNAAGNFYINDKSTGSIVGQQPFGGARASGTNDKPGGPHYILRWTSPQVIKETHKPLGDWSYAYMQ

[2] = molecular target: T2, Cytosolic 10-formyltetrahydrofolate dehydrogenase (Rattus norvegicus) (UniProt P28037); assay: Effect on rat carboxy terminal ALDH domain of ALDH1L1 at 20 uM preincubated for 2 mins with NAD+ followed by aldehyde substrate addition
T2 sequence (whole entry): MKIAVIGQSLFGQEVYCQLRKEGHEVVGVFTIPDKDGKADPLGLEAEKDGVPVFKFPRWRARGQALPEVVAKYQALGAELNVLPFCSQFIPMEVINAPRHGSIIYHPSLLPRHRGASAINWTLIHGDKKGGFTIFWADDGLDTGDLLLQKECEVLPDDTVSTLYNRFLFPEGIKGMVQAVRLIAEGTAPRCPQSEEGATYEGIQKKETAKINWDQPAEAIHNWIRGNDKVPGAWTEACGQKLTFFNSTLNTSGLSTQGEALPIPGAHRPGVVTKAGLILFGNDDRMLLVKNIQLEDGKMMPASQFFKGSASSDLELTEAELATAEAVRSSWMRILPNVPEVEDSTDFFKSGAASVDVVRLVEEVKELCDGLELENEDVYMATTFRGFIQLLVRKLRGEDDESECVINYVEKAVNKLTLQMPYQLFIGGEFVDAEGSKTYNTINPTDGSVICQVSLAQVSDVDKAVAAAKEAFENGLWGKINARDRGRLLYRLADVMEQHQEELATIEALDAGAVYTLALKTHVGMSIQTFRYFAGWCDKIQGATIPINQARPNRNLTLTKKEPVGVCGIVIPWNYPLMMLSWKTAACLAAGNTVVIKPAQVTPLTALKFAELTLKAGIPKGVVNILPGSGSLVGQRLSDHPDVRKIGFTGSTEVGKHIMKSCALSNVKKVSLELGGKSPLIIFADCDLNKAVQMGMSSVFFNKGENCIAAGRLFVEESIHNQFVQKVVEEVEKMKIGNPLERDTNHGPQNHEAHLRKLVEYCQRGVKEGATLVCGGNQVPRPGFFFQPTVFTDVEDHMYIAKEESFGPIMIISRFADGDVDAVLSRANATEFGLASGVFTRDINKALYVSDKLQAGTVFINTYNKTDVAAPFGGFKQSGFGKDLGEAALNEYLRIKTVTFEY

[3] = molecular target: T3, Retinaldehyde dehydrogenase 3 (Homo sapiens) (UniProt P47895); assay: Effect on recombinant human ALDH1A3 using propionaldehyde as substrate at 20 uM preincubated for 2 mins with NAD+ followed by substrate addition by UV-Vis spectrophotometric analysis
T3 sequence (whole entry): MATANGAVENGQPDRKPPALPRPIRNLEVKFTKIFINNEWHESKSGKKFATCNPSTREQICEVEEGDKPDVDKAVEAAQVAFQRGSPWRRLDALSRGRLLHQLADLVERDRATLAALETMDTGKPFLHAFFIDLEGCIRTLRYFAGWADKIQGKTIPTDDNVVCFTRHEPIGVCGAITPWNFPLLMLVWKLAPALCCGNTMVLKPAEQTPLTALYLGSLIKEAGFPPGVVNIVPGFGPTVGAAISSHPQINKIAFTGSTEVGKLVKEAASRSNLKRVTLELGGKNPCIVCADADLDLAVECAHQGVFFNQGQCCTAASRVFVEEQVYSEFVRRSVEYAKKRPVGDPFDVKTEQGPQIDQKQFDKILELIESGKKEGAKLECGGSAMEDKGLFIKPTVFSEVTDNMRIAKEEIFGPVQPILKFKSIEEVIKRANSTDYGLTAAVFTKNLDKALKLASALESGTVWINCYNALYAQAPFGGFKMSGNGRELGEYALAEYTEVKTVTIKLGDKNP

[4] = molecular target: T4, Succinate-semialdehyde dehydrogenase, mitochondrial (Homo sapiens) (UniProt P51649); assay: Effect on human ALDH5A1 at 20 uM preincubated for 2 mins with NAD+ followed by aldehyde substrate addition
T4 sequence (whole entry): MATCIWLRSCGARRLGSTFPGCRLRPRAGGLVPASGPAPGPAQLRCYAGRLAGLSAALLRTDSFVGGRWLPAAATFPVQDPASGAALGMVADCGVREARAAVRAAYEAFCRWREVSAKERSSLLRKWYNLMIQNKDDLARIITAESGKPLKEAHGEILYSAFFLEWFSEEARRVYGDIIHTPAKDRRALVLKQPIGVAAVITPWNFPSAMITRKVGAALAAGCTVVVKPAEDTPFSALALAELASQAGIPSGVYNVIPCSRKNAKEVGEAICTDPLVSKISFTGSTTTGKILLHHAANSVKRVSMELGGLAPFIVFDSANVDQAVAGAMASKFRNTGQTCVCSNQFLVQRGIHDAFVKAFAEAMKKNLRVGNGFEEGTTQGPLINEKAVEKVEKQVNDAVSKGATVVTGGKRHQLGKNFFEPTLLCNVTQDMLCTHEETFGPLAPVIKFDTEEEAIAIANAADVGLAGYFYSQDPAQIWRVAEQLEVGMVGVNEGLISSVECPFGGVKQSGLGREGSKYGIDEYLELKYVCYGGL

Activity [1]: inactive
Activity [2]: inactive
Activity [3]: inactive
Activity [4]: inactive
Structure (SMILES): CC(C)CCn1c(CN2CCN(C(=O)c3ccco3)CC2)nc2c1c(=O)n(C)c(=O)n2C
